Laboratory results published in the NIST ThermoML archive (doi:10.1016/j.jct.2004.12.003).
Numbers after ± are expanded uncertainties.

Legend:
[1] = Liquid; for mass density: 293.15 K, 101.33 kPa
[2] = refractive index (Na D-line) (dimensionless); details: 293.15 K; 101.33 kPa; Liquid; Standard Abbe refractometry

SMILES | mass density [1] [kg/m3] | Normal boiling temperature [1] [°C] | refractive index [2]
COC(=O)c1ccccc1C(=O)OC [dimethyl 1,2-benzenedicarboxylate] | 1191 ± 0.8 | 283.93 ± 0.08 | 1.514 ± 0.0011
CCC(=O)O [propanoic acid] | 992.7 ± 0.5 | 141.0 ± 0.08 | 1.3811 ± 0.0011
